Measured values reported in patent US20020035106A1, “Use of potassium channel agonists for reducing fat food consumption” (priority 2000, published 2002).

What was measured:
[1] = tested on: mice; settings: intracerebroventricular administration; cited from earlier work
[2] = tested on: fed male obese Zucker rat; experiment: The snacking model: consumption of a palatable high fat or low fat meal; assay type: in vivo
Source text: Rats are habituated to the presence of a palatable high fat meal (Research diets 45% fat D12451) or another palatable low fat meal (Research diets 10% fat D12450B) in their home cage during four hours in the morning two times a week, 9-13a.m. The rats feed ad libitum on rat chow (Altromin #1324, 4% fat) outside the hours of the session and water is present adlibitum. The consumption of the meal is monitored, and as it stabilises, by 7-9 sessions, the animal is ready for use.
The animals are tested two times a week, and the baseline is re-established within 24h. During the experimental session, the compound is administered 30 minutes before the session starts. Food and water intake is monitored at 2 and 4 hours after the meal is presented.

[3] = tested on: rats; settings: cited from earlier work
[4] = tested on: hyperinsulinemic obese individuals; settings: 8 weeks treatment; cited from earlier work
[5] = target: T1, KATP-channels on pancreatic beta-cells (Homo sapiens, UniProt Q09428); settings: by activation of KATP-channels on pancreatic beta-cells; cited from earlier work
T1 construct: KATP-channels on pancreatic beta-cells; host or cells: pancreatic beta-cells (endogenous)
T1 sequence (Q09428 whole entry): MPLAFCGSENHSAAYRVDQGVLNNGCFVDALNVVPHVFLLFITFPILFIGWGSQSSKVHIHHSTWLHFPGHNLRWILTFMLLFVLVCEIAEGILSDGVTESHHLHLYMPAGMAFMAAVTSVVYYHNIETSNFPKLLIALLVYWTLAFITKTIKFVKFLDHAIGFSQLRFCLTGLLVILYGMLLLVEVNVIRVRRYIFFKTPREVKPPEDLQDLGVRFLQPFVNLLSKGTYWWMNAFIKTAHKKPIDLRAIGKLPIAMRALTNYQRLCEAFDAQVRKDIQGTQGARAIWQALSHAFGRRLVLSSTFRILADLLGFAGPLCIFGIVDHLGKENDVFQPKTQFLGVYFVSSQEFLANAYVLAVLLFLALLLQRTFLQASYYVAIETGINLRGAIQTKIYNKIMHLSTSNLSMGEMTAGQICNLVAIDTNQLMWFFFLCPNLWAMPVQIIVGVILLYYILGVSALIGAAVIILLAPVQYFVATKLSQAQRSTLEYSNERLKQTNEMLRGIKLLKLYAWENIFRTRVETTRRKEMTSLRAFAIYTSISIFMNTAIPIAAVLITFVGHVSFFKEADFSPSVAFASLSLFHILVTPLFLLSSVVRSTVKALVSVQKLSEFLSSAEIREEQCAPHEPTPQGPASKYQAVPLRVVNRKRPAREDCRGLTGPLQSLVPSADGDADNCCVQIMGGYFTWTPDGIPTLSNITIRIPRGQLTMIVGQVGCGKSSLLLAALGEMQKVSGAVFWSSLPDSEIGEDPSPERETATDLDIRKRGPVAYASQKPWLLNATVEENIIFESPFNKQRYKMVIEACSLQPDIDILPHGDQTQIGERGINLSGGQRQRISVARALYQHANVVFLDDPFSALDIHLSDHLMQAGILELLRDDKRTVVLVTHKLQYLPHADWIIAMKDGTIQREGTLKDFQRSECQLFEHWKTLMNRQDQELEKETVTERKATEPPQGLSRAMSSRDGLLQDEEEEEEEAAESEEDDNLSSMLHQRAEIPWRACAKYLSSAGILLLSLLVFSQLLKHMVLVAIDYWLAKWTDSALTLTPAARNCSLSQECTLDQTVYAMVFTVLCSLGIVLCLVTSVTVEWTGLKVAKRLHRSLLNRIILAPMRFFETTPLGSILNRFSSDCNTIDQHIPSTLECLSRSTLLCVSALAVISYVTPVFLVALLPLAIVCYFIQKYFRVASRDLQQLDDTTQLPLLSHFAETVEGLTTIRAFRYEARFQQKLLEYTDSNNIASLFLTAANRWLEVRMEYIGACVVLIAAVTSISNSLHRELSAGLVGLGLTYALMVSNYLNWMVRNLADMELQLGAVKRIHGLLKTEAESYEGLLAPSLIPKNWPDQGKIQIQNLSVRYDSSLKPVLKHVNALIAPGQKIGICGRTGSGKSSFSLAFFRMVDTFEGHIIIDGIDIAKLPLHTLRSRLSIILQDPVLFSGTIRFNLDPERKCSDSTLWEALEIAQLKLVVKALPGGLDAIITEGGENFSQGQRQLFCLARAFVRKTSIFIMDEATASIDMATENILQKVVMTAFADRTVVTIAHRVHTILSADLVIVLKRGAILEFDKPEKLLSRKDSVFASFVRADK
T1 sequence (Q14654 whole entry partner): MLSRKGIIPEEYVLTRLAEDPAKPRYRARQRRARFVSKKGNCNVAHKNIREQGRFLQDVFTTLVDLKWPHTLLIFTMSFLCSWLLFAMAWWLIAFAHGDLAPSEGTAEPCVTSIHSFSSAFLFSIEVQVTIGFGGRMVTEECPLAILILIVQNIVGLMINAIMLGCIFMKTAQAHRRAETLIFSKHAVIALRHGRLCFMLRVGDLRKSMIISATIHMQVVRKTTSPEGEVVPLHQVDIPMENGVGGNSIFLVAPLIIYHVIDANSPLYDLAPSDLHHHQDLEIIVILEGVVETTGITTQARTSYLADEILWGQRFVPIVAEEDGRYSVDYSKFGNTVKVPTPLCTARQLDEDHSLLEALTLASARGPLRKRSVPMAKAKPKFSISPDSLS

[6] = tested on: obese Zucker rats; settings: cited from earlier work
[7] = 30 mg/kg PO admin., 30 minutes before session

**Q.** For `CC(N/C(=N\C#N)Nc1ccncc1)C(C)(C)C` (stereo not drawn) [pinacidil], which intake of food [1] is on record?
**A.** increase to intake of food

**Q.** Which “reduced consumption of a high fat meal (45 kcal % fat)” value (from here on “reduced consumption … (45 kcal % fat)”) [2, 7] does the source give for `CC(C)NC1=NS(=O)(=O)c2sc(Cl)cc2N1` [6-Chloro-3-isopropylamino-4H-thieno[3,2-e]-1,2,4-thiadiazine 1,1-dioxide] here?
**A.** 77%

**Q.** And the “reduced consumption of a low fat meal (10 kcal % fat)” value (“reduced consumption … (10 kcal % fat)” below) [2, 7]?
**A.** 61%

**Q.** What does the source list for `CC1(C)Oc2ccc(C#N)cc2C(N2CCCC2=O)C1O` (stereo not drawn) [cromakalim]?
**A.** intake of food ([3]; intraperitonal administration): reduces the intake of food; intake of food [1]: increase to intake of food

**Q.** With `CC1=Nc2ccc(Cl)cc2S(=O)(=O)N1` [Diazoxide, 7-chloro-3-methyl-2H-1,2,4-benzothiadiazine 1,1-dioxide] as the compound, how does the antiobesity effect [4] read?
**A.** significant antiobesity effect

**Q.** And the insulin release [5]?
**A.** inhibit insulin release

**Q.** What about the “reduced consumption … (45 kcal % fat)” value [2, 7] of the same compound?
**A.** 53%

**Q.** And the “reduced consumption … (10 kcal % fat)” value [2, 7]?
**A.** 42%

**Q.** What about the “leptin and lipid metabolising enzymes” value ([6]; adipose tissue of Zucker rats) of the same compound?
**A.** down-regulate leptin and lipid metabolising enzymes

**Q.** And the glucose tolerance ([6]; obese Zucker rats)?
**A.** improve glucose tolerance

**Q.** And the insulin receptor binding ([6]; obese Zucker rats)?
**A.** increase insulin receptor binding

**Q.** What about the insulin secretion ([6]; obese Zucker rats) of the same compound?
**A.** decrease insulin secretion

**Q.** What about the weight gain ([6]; obese Zucker rats) of the same compound?
**A.** decrease weight gain

**Q.** For `COc1ccc(Cl)cc1C(=O)NCCc1ccc(S(=O)(=O)NC(=O)NC2CCCCC2)cc1` [glibenclamide], which food intake ([3]; central administration) is on record?
**A.** reduce food intake

**Q.** With `CC1(NC2=NS(=O)(=O)c3sc(Cl)cc3N2)CC1` [6-Chloro-3-(1-methylcyclopropyl)amino-4H-thieno[3,2-e]-1,2,4-thiadiazine 1,1-dioxide] as the compound, how does the “reduced consumption … (45 kcal % fat)” value ([2]; 5 mg/kg PO admin.) read?
**A.** 44%

**Q.** And the “reduced consumption … (10 kcal % fat)” value ([2]; 5 mg/kg PO admin.)?
**A.** 15%

**Q.** What about the “reduced consumption … (45 kcal % fat)” value ([2]; 15 mg/kg PO admin.) of the same compound?
**A.** 64%

**Q.** What about the “reduced consumption … (10 kcal % fat)” value ([2]; 15 mg/kg PO admin.) of the same compound?
**A.** 57%

**Q.** What about the “reduced consumption … (45 kcal % fat)” value [2, 7] of the same compound?
**A.** 86%

**Q.** And the “reduced consumption … (10 kcal % fat)” value [2, 7]?
**A.** 75%
